Assay results reported in patent US10435361B2, “Kinase inhibitors” (Topivert Pharma Limited, priority 2013, dated 2019).

Assays:
[1] = tested on: BDF1 mice; assay: TNBS-induced colitis in mice; assay type: in vivo; conditions: conducted over 2 days; vehicle corn oil/transcutol/maisine/cremophor ELP
Experimental: Non-fasted, 10-12 week old, male BDF1 mice are dosed by oral gavage twice daily with either vehicle (5 mL/kg), reference item (Budesonide 2.5 mg/kg) or test compound (1 or 5 mg/kg) one day before (Day −1) stimulation of the inflammatory response by treatment with 2,4,6-trinitrobenzenesulphonic acid (TNBS) (15 mg/mL in 50% ethanol/50% saline). On Day 0 of the study TNBS (200 μL) is administered intra-colonically via a plastic catheter with BID dosing of the vehicle, reference or test compound continuing for 2 or 4 days. During the study, animals are weighed every day and stool observations are made and recorded as a score, based on stool consistency. At the time of sacrifice on Day 2 (or Day 4), the large intestine is removed and the length and weight recorded. Sections of the colon are taken for histopathology scoring to determine disease severity.

[2] = tested on: PBMCs; assay: IL-2 and IFN gamma release in CD3/CD28 stimulated PBMC cells; assay type: cell-based; conditions: Homo sapiens, assay (c)
How it was run: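 Healthy-donor PBMCs, density-gradient isolated, stimulated on plates pre-coated with anti-CD3 (0.3 μg/mL) and anti-CD28 (3 μg/mL) antibodies, with compound, for 3 days under standard culture conditions. IC50 derived from the dose-response curve.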

[3] = tested on: HT29 cells; assay: IL-1β-induced IL-8 release in HT29 cells; assay type: cell-based; conditions: Homo sapiens, HT-29, assay (d), read-out: IC50 Values for Inhibition of Cytokine Release HT29 cells IL-8
Experimental: HT29 cells, a human colon adenocarcinoma cell line, are plated in a 96 well plate (24 hr) and pre-treated with compounds at the desired concentration for 2 hours before addition of 5 ng/mL of IL-1β (Abcam) for 24 hours. Supernatants are harvested for IL-8 quantification by Sandwich ELISA (Duo-set, R&D System). The IC50 is determined from the dose response curve.

[4] = tested on: PBMCs; assay: Cell mitosis assay in PBMCs; assay type: cell-based; conditions: Homo sapiens, PBMC, 5 μg/mL
How it was run: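 Human PBMCs from healthy donors, density-gradient isolated, stimulated with 2% PHA 48 h, then exposed 20 h to test compounds; demecolcine 0.1 μg/mL added 2 h before harvest. Fixed/permeabilised cells stained for phospho-histone H3 and propidium iodide; mitotic lymphocytes counted by flow cytometry.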

[5] = tested on: PBMCs; assay: LPS-induced TNFα/IL-8 release in PBMC cells; assay type: cell-based; conditions: Homo sapiens, assay (b), read-out: IC50 Values for Inhibition of Cytokine Release PBMCs IL-8
How it was run: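 Healthy-donor PBMCs isolated by density gradient were pretreated with compound for 2 h, then stimulated with 1 ng/mL LPS (E. coli 0111:B4) for 24 h at 37° C., 5% CO2. IL-8 and TNFα in supernatants measured by sandwich ELISA.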

[6] = read-out: IC50 Values for Inhibition of Cytokine Release PBMCs IFNγ
[7] = read-out: IC50 Values for Inhibition of Cytokine Release PBMCs IL-2

| SMILES | activity in TNBS-induced colitis (histopathology analysis) [1] | IC50 [2, 6] | IC50 [2, 7] | IC50 [3] | inhibition at 5 µg/mL [4] | IC50 [5] |
| --- | --- | --- | --- | --- | --- | --- |
| COc1cc(Nc2cc(Oc3ccc(NC(=O)Nc4cc(C(C)(C)C)cc(NS(C)(=O)=O)c4OC)c4ccccc34)ccn2)cc(C(=O)NCCN2CCN(C)CC2)c1 [Example 79, 3-((4-((4-(3-(5-(tert-Butyl)-2-methoxy-3-(methylsulfonamido)phenyl)ureido)naphthalen-1-yl)oxy)pyridin-2-yl)amino)-5-methoxy-N-(2-(4-methylpiperazin-1-yl)ethyl)benzamide] | displayed substantial activity | 5.9 nM | 284 nM | 13.1 nM | 54.4% | 3.4 nM |
| COCCOCCOCCOc1cc(Nc2cc(Oc3ccc(NC(=O)Nc4cc(C(C)(C)C)cc(C(N)=O)c4OC)c4ccccc34)ccn2)cc(OC)c1 [Example 34, 5-(tert-Butyl)-2-methoxy-3-(3-(4-((2-((3-methoxy-5-(2-(2-(2-methoxyethoxy)ethoxy)ethoxy)phenyl)amino)pyridin-4-yl)oxy)naphthalen-1-yl)ureido)benzamide] | displayed substantial activity | 7.6 nM | 62.5 nM | 2.1 nM | 40.4% | 3 nM |
